Data set [1] in a line: human liver microsome (HLM) metabolic stability assay. Type of data set: in vitro ADME. As to conditions: human liver microsomes; % hepatic blood flow calculated from t1/2. In a few lines: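 Compounds at 1 uM incubated with human liver microsomes plus NADPH at 37° C., sampled at 0, 5, 15, 30 and 60 min into cold acetonitrile and quantified by LC/MS/MS. t½ from the slope of ln % remaining vs time; CLint, CLh and % Qh derived from it (n=1).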

Data set [2] has as its target T1, human soluble guanylate cyclase alpha 1 and beta 1 subunits (sGC) (Homo sapiens, UniProt Q02108+Q02153).
T1 construct: expressed in transfected cells; host or cells: Chinese hamster ovary (CHO) cells, stably transfected
T1 sequence (Q02108 1-690): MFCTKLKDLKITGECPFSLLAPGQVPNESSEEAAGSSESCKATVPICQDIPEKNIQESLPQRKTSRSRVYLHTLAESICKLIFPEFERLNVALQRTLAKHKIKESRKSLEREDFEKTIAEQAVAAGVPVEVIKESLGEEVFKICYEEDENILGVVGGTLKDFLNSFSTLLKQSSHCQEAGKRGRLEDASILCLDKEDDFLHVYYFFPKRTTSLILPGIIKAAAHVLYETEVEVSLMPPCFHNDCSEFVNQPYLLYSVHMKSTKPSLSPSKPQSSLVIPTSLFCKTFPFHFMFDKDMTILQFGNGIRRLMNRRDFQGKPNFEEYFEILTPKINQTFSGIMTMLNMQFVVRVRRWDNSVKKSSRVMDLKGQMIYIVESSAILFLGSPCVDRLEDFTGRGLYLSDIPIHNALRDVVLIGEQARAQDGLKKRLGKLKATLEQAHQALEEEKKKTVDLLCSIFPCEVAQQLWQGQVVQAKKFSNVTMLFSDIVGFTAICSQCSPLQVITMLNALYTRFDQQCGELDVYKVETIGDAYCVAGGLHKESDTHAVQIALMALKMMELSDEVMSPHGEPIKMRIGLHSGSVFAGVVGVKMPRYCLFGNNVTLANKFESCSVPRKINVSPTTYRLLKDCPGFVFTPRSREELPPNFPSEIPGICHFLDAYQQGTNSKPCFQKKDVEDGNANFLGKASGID
T1 sequence (Q02153 1-619): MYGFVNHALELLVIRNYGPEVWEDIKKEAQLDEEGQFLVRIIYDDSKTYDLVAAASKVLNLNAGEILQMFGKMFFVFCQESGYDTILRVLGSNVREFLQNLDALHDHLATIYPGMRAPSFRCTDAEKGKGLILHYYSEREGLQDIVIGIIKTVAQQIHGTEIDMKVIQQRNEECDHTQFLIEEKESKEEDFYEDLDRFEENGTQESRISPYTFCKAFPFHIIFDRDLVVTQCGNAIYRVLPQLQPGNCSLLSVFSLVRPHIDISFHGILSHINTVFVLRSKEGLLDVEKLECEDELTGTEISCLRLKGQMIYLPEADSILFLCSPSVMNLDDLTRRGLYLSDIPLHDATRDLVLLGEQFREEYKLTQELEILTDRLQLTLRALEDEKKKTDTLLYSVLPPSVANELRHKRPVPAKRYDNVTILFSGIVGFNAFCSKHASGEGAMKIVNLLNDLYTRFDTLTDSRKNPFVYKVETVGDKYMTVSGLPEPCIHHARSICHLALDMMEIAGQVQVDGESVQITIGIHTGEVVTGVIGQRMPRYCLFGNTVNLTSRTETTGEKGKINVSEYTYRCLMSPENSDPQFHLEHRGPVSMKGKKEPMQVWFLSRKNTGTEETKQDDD
As to the kind of experiment: sGC cellular activator assay (cGMP, HTRF). The class given is cell-based. As to conditions: CHO cells stably expressing human sGC alpha 1/beta 1, preincubated with 40 microM ODQ; cGMP readout; assay run with and without 50% human serum, Table 2 does not say which. In outline: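 Heme-oxidized conditions: ODQ (40 microM, 1 h) pretreatment of CHO cells stably expressing human α1/β1 sGC, in buffer containing 0.1% BSA and IBMX.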

pEC50: −log10 of the molar value.

In the case of `CCOc1c(C(=O)O)cnn1-c1cccc(-c2cccc(C)c2OCc2ccc3c(c2C)CCN(C(=O)C2CCOCC2)C3)n1` [Compound 147, 5-Ethoxy-1-(6-{3-methyl-2-[5-methyl-2-(tetrahydro-pyran-4-carbonyl)-1,2,3,4-tetrahydro-isoquinolin-6-ylmethoxy]-phenyl}-pyridin-2-yl)-1H-pyrazole-4-carboxylic acid], in data set [1], the “HLM (% Qh)” value was less than 24 % Qh. The compound further gave a pEC50 in data set [2] of 6.35.

As to `COCCOc1c(C(=O)O)cnn1-c1cccc(-c2cccc(C)c2OCc2ccc3c(c2C)CCN(C2CCCOC2)C3)n1` (stereo not shown) [Compound 149], the “HLM (% Qh)” value in data set [1] is less than 24 % Qh. In data set [2], this compound gave a pEC50 of 7.36.

With `COCCOc1c(C(=O)O)cnn1-c1cccc(-c2cccc(C)c2OCc2ccc3c(c2C)CCN(C2CCOC2)C3)n1` (stereo not shown) [Compound 150], the “HLM (% Qh)” value in data set [1] was less than 24 % Qh. Besides, the pEC50 in data set [2] is 7.04.

In the case of `COCCOc1c(C(=O)O)cnn1-c1cccc(-c2cccc(C)c2OCc2ccc3c(c2C)CCN(C2CCOCC2)C3)n1` [Compound 151], in data set [1], the “HLM (% Qh)” value was less than 24 % Qh. Also, in data set [2], the pEC50 is 6.89.

As to `CCOc1c(C(=O)O)cnn1-c1cccc(-c2cccc(C)c2OCc2ccc3c(c2C)CCN(C[C@@H]2CCCOC2)C3)n1` [Compound 152], the “HLM (% Qh)” value in data set [1] is less than 24 % Qh. The same compound gave a pEC50 in data set [2] of 7.85.

Take `CCOc1c(C(=O)O)cnn1-c1cccc(-c2cccc(C)c2OCc2ccc3c(c2C)CCN(C[C@H]2CCCOC2)C3)n1` [Compound 153]: the “HLM (% Qh)” value in data set [1] is less than 24 % Qh. The same compound gave a negative logarithm of the EC50 (pEC50) in data set [2] of 7.59.

In the case of `CCOc1c(C(=O)O)cnn1-c1cccc(-c2cccc(C)c2OCc2ccc3c(c2CC)CCN(C2CCOCC2)C3)n1` [Compound 154], the “HLM (% Qh)” value in data set [1] is reported as less than 24 % Qh. In addition, in data set [2], the pEC50 is 7.55.

With `CCOc1c(C(=O)O)cnn1-c1cccc(-c2cccc(C)c2OCc2ccc3c(c2C)CCN(C2COC(C)(C)OC2)C3)n1` [Compound 155], the “HLM (% Qh)” value in data set [1] is on record as less than 24 % Qh. In data set [2], this compound gave a pEC50 of 7.07.

With `CCOc1c(C(=O)O)cnn1-c1cccc(-c2cccc(C)c2OCc2cc3c(c(C(F)(F)F)c2)CN(C2CCOCC2)CC3)n1` [Compound 157], the “HLM (% Qh)” value in data set [1] was 31 % Qh. In data set [2], this compound gave a pEC50 of 7.60.

As for `COc1c(C(=O)O)cnn1-c1cccc(-c2cccc(C)c2OCc2cc3c(c(C(F)(F)F)c2)CN(C2CCOCC2)CC3)n1` [Compound 158], in data set [1], the “HLM (% Qh)” value is on record as less than 24 % Qh. This compound gave a pEC50 in data set [2] of 7.52.

Regarding `CCOc1c(C(=O)O)cnn1-c1cccc(-c2cccc(C)c2OCc2ccc3c(c2F)CCN(C2CCOCC2)C3)n1` [Compound 159], the “HLM (% Qh)” value in data set [1] is recorded as less than 24 % Qh. In data set [2], this compound gave a pEC50 of 7.28.

With `COc1c(C(=O)O)cnn1-c1cccc(-c2cccc(C)c2OCc2ccc3c(c2C)CCN(S(C)(=O)=O)C3)n1` [Compound 160], in data set [1], the “HLM (% Qh)” value is 44 % Qh. The compound also showed a pEC50 in data set [2] of 6.96.

In the case of `Cc1cc(COc2c(C)cccc2-c2cccc(-n3ncc(C(=O)O)c3OC(C)C)n2)cc2c1CN(C1CCOCC1)CC2` [Compound 161], the “HLM (% Qh)” value in data set [1] was less than 24 % Qh. The pEC50 in data set [2] is 7.85.

For the compound `CCOc1c(C(=O)O)cnn1-c1cccc(-c2cccc(C)c2OCc2ccc3c(c2C)CCN(C2CCOCC2)CC3)n1` [Compound 162], the “HLM (% Qh)” value in data set [1] is 26 % Qh. For the same compound, the pEC50 in data set [2] is 7.64.

As to `CCOc1c(C(=O)O)cnn1-c1cccc(-c2cccc(C)c2OCc2ccc3c(c2C)CCN(CC2CCOC(C)(C)C2)C3)n1` (stereo not shown) [Compound 163], in data set [1], the “HLM (% Qh)” value was less than 24 % Qh. Besides, in data set [2], the pEC50 was 7.26.

Turning to `CCOc1c(C(=O)O)cnn1-c1cccc(-c2cccc(C)c2OCc2ccc3c(c2C)CCN(C2COC2)C3)n1` [Compound 164], the “HLM (% Qh)” value in data set [1] was less than 24 % Qh. Further, the pEC50 in data set [2] was 7.49.

Consider `CCOc1c(C(=O)O)cnn1-c1cccc(-c2cccc(C)c2OCc2ccc3c(c2C(F)(F)F)CCN(C2CCOCC2)C3)n1` [Compound 165], for which the “HLM (% Qh)” value in data set [1] was less than 24 % Qh. In addition, the pEC50 in data set [2] was 7.96.

Broadly, the pEC50 is the negative decadic logarithm of the EC50, by convention in mol/L.

(Values after US8906904B2, “Alkoxy pyrazoles as soluble guanylate cyclase activators” (Boehringer Ingelheim International GmbH, priority 2012, dated 2014).)
